According to the supplement of paper PMC6723410:

Tested on: GUMC-403
Experiment: viability at highest tested concentration (max response) relative to DMSO (% of DMSO control); higher = less cytotoxic
Details: library / dose series: MIPE library, 11-point 1:3 dilution, 48 h
Outline: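 Each figure stands for viability at the highest tested concentration compared with vehicle control. It was measured by CellTiter-Glo luminescence on a ViewLux after 48 h of exposure to 23 nL of pinned compound, with vehicle wells taken as 100% and empty wells as 0%. The cells were patient-derived GUMC-403 papilloma cells grown by conditional reprogramming, plated at 700/well in 5 μL F + Y medium in 1536-well plates.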

Structure (SMILES) | viability (top concentration 46.1 µM) | also measured
CC[C@H](CC[C@@H](C)[C@H]1CC[C@H]2[C@@H]3C\C=C/4C[C@@H](O)CC[C@]4(C)[C@H]3CC[C@]12C)C(C)C | 101 | –
CN(C)CC[C@H](c1ccc(Cl)cc1)c1ccccn1 | 112 | –
CC/1=C/N([C@@H]2C[C@@H](O)[C@H](CO)O2)C(=O)NC1=O | 117 | –
COc1ccc(C(=O)N2CCCC2=O)cc1 | 119 | –
C[C@]12CCC3c4ccc(O)cc4CCC3C1CCC2=O (stereo not given in full) | 94.8 | –
C=CCc1cc(OC)c(O)c(C(=O)NCCO)c1 | 118 | –
CCN(CCO)CCCOc1ccc2c(Nc3cc(CC(=O)Nc4cccc(F)c4)[nH]n3)ncnc2c1 | 105 | –
COc1ccc(C(=O)c2c(C)n(CCN3CCOCC3)c3cc(I)ccc23)cc1 | 143 | –
CC1=C(/C=C/C(C)=C/C=C/C(C)=C/C(=O)O)C(C)(C)CCC1 | 86.6 | –
NCCc1c[nH]cn1 | 135 | –
c1ccc2[nH]c(-c3cscn3)nc2c1 | 124 | –
COc1ccc2c(c1)CC[C@@H](CN(C)CC(=O)O)[C@H]2c1ccccc1 | 78.3 | –
CCOc1cc(N2CCC(O)CC2)ccc1Nc1ncc2c(n1)N(C)c1ccccc1C(=O)N2C | 89.8 | –
ClC1=CC=C(C=C1)C(C#N)C2=C(Cl)C=C(C=C2Cl)N3\N=C/C(=O)NC3=O (stereo not given) | 125 | –
N#C/C(C(=O)c1ccc(Cl)cc1Cl)=C1/NC(=O)c2ccc(Cl)cc2N1 | 100 | –
COc1cc2c(cc1O)CCC1C2CC[C@@]2(C)C1CC[C@@H]2O (stereo not given in full) | 101 | –
CC[C@]12CC[C@H]3[C@@H](CCC/4=C/C(=O)CC[C@H]34)[C@@H]1CC[C@@]2(O)C#C | 93.2 | –
CN(C)c1nc(Cc2ccc(NC(=O)c3ccc(C(F)(F)F)cc3)cc2)nc(N(C)C)c1CC(=O)O | 127 | –
CN1C(=O)C(Cc2c[nH]c3ccccc23)NC1=S (stereo not given) | 102 | –
NC(=O)c1cccc(-c2cc(Nc3ccc(OC(F)(F)F)cc3)ncn2)c1 | 117 | –
O=C([O-])C(O)Cc1ccc(O)c(O)c1 (stereo not given) | 106 | –
CN1\C(=C(\O)C2=C(C=CS2)[S+]1([O-])=O)C(=O)NC3=CC=CC=N3 | 126 | –

Structure (SMILES) | viability (top concentration 46.1 µM) | also measured
C[C@@H]1[C@H]\2[C@H](O)[C@H]3[C@H](N(C)C)\C(=C(C(N)=O)/C(=O)[C@@]3(O)\C(=C2C(=O)C4=C(O)C=CC=C14)O)O | 98.3 | –
Cc1cn[nH]c1 | 126 | –
Cn1cnc2c1c(=O)[nH]c(=O)n2C | 127 | –
CC(NC(C)(C)C)C(=O)c1cccc(Cl)c1 (stereo not given) | 127 | –
CCOC(=O)\C1=C\[C@@H](OC(CC)CC)[C@H](NC(C)=O)[C@@H](N)C1 | 123 | –
Cc1ccc(Nc2cc(-c3cccc(N4C(=O)c5ccccc5C4=O)c3)ncn2)cc1N[S+](C)(=O)[O-] | 117 | –
ClC1=CC\2=C(OC3=C(C=CC=C3)\N=C2N4CCNCC4)C=C1 | 110 | –
O=C(NCCCCN1CCOCC1)c1cc2ccccc2o1 | 106 | –
Clc1ccccc1C(c1ccccc1)(c1ccccc1)n1cccn1 | 105 | –
C[C@@H](N)c1ccc(C(=O)Nc2ccnc3[nH]ccc23)cc1 | 139 | –
Cc1nnc(C(=O)NC(C)(C)c2nc(C(=O)NCc3ccc(F)cc3)c(O)c(=O)n2C)o1 | 124 | –
N[C@H](CSC(c1ccccc1)(c1ccccc1)c1ccccc1)C(=O)O | 103 | –
CCCN[C@H]1CCc2nc(N)sc2C1 | 142 | –
CC(N[C@H]1CCCC[C@@H]1NC(=O)c1ccc(Cl)cc1)c1cccc2ccccc12 (stereo not given in full) | 91.2 | –
OC1=CC=C(C=C1)C/2=C/C3=C(OC2)C=C(O)C=C3 | 89.4 | –
COc1cc2nc(N3CCN(C(=O)c4ccco4)CC3)nc(N)c2cc1OC | 23.4 | –
COc1ccc(OC)c(-c2nnc3ccc(-c4ccc(OC)c(O[C@@H]5CCOC5)c4)nn23)c1 | 4.61 | –
Cc1csc(NC(=O)c2sc3nc4c(c(C(F)(F)F)c3c2N)CCC4)n1 | 94.1 | –
COC1=CC=CC2=C1C(=NC(=N2)C3=CC=CS3)NN4C(=O)\C=C(C)/C4=O | 80 | –
O=C(N[C@H](CO)[C@H](O)c1ccc([N+](=O)[O-])cc1)C(Cl)Cl | 130 | –
NC\1=N\C(=O)N(\C=C1)[C@@H]2O[C@H](CO)[C@@H](O)[C@@H]2O | 113 | –
COc1cc2nccc(Oc3ccc(NC(=O)Nc4cc(C)on4)c(Cl)c3)c2cc1OC | 73.5 | –

Structure (SMILES) | viability (top concentration 46.1 µM) | also measured
COc1cc(C(C)=O)ccc1OCCCN1CCC(c2noc3cc(F)ccc23)CC1 | 102 | –
CC(=O)Nc1ccc(O)cc1 | 123 | –
Cc1oncc1C(=O)Nc1ccc(C(F)(F)F)cc1 | 105 | –
O=P(O)(O)C(O)(Cn1ccnc1)P(=O)(O)O | – | viability (top concentration 23 µM): 122
OC[C@H]1O[C@@H](OCCc2ccc(O)cc2)[C@H](O)[C@@H](O)[C@@H]1O | 107 | –
CC(C)(C)OC(=O)Nc1ccc(-c2cc(C(=O)NCCCCCCC(=O)NO)no2)cc1 | 81.6 | –
COc1cc(OC)c(NC(=O)Nc2cc(C)on2)cc1Cl | 131 | –
CO/C1=C/C(C)=C\[C@@H](C)[C@@H](O)[C@@H](C)C/C(C)=C\C=C/[C@H](OC)[C@@H]([C@@H](C)[C@@H](O)[C@H](C)[C@@]2(O)C[C@@H](O)[C@H](C)[C@@H](C(C)C)O2)OC1=O | 93 | –
CCN1CCC(n2cc(CNc3cc(Cl)c4ncc(C#N)c(Nc5ccc(F)c(Cl)c5)c4c3)nn2)CC1 | 97 | –
CCC(=O)OCC(=O)[C@@]1(OC(=O)CC)[C@@H](C)C[C@H]2[C@@H]3CCC4=CC(=O)C=C[C@]4(C)[C@@]3(F)[C@@H](O)C[C@@]21C | 120 | –
CC[C@@]1([C@@H]2O[C@@H]([C@H]3O[C@@](O)(CO)[C@H](C)C[C@@H]3C)C[C@@H]2C)CC[C@H]([C@]2(C)CC[C@]3(C[C@H](O)[C@@H](C)[C@@H]([C@@H](C)[C@@H](OC)[C@H](C)C(=O)[O-])O3)O2)O1 | – | viability (top concentration 23 µM): 116
C1COC(NC(C2CC2)C2CC2)=N1 | 91.2 | –
C1Cc2[nH]nc(-c3nn[nH]n3)c2C1 | 118 | –
CCC[C@H](Nc1nc(-c2ccc(NC(=O)NCC)c(OC)c2)ncc1C)c1cccnc1 | 94 | –
C[C@H]1C[C@H]2[C@@H]3CCC4=CC(=O)C=C[C@]4(C)[C@@]3(F)[C@@H](O)C[C@]2(C)[C@@]1(O)C(=O)CO | 142 | –
O=C(NCC1CCCCN1)c1cc(OCC(F)(F)F)ccc1OCC(F)(F)F (stereo not given) | 87.2 | –
CN1\N=N/C2=C(N=C[N]2C1=O)C(N)=O | 121 | –
O=C1\C=C(OC2=C(C=CC=C12)C3=CC=CC4=C3SC5=C4C=CC=C5)\N6CCOCC6 | 70.9 | –
COc1ccc2c(OCc3nnc4ccc(-c5ccccc5)nn34)ccnc2c1 | 126 | –
COc1ccc(Cn2ccc3ccc(C(=O)NO)cc32)cc1 | 108 | –
OC[C@H]1O[C@@H](O[C@@H]2[C@@H](CO)O[C@](O)(CO)[C@H]2O)[C@H](O)[C@@H](O)[C@H]1O | 95.3 | –
COc1cc(/C=C/C(=O)O)ccc1O | 115 | –

Structure (SMILES) | viability (top concentration 46.1 µM) | also measured
CC1(C)SCCN([S+](=O)([O-])c2ccc(OCC#CCO)cc2)[C@H]1C(=O)NO | 103 | –
COc1ccc(CC2c3cc(OC)c(OC)cc3CC[N+]2(C)CCC(=O)OCCCCCOC(=O)CC[N+]2(C)CCc3cc(OC)c(OC)cc3C2Cc2ccc(OC)c(OC)c2)cc1OC (stereo not given) | – | viability (top concentration 7.37 µM): 84
Cn1c(CCCC(=O)O)nc2cc(N(CCCl)CCCl)ccc21 | 124 | –
CC(C(=O)O)c1ccc2c(c1)CC(=O)c1ccccc1S2 (stereo not given) | 103 | –
O=C(c1ccc(Nc2nccc(-c3cc4ccccc4s3)n2)cc1)N1CCC(N2CCCC2)CC1 | 41 | –
OCCN(CCO)c1nc(N2CCCCC2)c2nc(N(CCO)CCO)nc(N3CCCCC3)c2n1 | 77 | –
COc1ccc(C2Sc3ccccc3N(CCN(C)C)C(=O)C2OC(C)=O)cc1 (stereo not given) | 110 | –
Cc1cccc(Nc2ccncc2[S+](=O)([O-])NC(=O)NC(C)C)c1 | 108 | –
CCCn1c(=O)c2[nH]c(-c3cnn(Cc4cccc(C(F)(F)F)c4)c3)nc2n(CC)c1=O | 119 | –
Clc1ccc(CCC(Cn2ccnc2)Sc2c(Cl)cccc2Cl)cc1 (stereo not given) | 97 | –
Cc1c(C(=O)Nc2ccc(N3C[C@@H](C)O[C@@H](C)C3)nc2)cccc1-c1ccc(OC(F)(F)F)cc1 | 109 | –
CC1(C)CCC(=C(\C1)C2=CC=C(Cl)C=C2)/CN3CCN(CC3)C4=CC(=C(C=C4)C(=O)N[S+]([O-])(=O)C5=CC=C(NCC6CCOCC6)C(=C5)[N+]([O-])=O)OC7=CN=C8[NH]C=CC8=C7 | 105 | –
COc1cc2nc(-c3cc(F)ccc3O)nc(N[C@@H]3CNC[C@H]3C(C)(C)O)c2cc1OC | 59.9 | –
Cc1ccccc1C(C(=O)NC1CCCCC1)N(C(=O)Cn1ccnc1C)c1cccc(F)c1 (stereo not given) | 120 | –
Cc1ccccc1C(OCCN(C)C)c1ccccc1 (stereo not given) | 127 | –
COC1=CC=CC(=C1/C2=N/CC3=C(N=C(NC4=CC(=C(C=C4)C(O)=O)OC)N=C3)C5=CC=C(Cl)C=C25)F | 45.4 | –
CO[C@H]1C[C@H]2OC[C@@]2(OC(C)=O)[C@H]3[C@H](OC(=O)C4=CC=CC=C4)[C@]5(O)C[C@H](OC(=O)[C@H](O)[C@@H](NC(=O)OC(C)(C)C)C6=CC=CC=C6)/C(=C(/[C@@H](OC)C(=O)[C@]13C)C5(C)C)C | 88.5 | –
CSCC[C@@H](NC(=O)[C@@H](Cc1ccccc1)NC(=O)CNC(=O)CNC(=O)[C@@H](N)Cc1ccc(O)cc1)C(=O)O | 126 | –
CCCCn1c(=O)n(Cc2ccccc2F)c(=O)c2nc(Cc3ccc(NC(C)=O)cc3)[nH]c21 | 94 | –
